Patent US8071625B2, “Certain chemical entities, compositions, and methods” (Cytokinetics, Inc., priority 2006, dated 2011)

Biological target: T1, crosslinked smooth muscle actomyosin (chicken gizzard smooth muscle myosin subfragment-1 crosslinked to cardiac or skeletal actin) (Gallus gallus, UniProt P10587)
T1 construct: chicken gizzard smooth muscle myosin subfragment-1; from tissue; host or cells: chicken gizzard
Assay: Lead optimization pyruvate kinase/horseradish peroxidase/pyruvate oxidase-coupled ATPase assay (compound dose response)
Assay type: biochemical
Conditions: read-out: IC50 Arithmetic Mean
Description: Screening assays were performed using a pyruvate kinase and lactate dehydrogenase-coupled ATPase assay containing the following reagents: Potassium PIPES (50 mM), MgCl2 (3 mM), KCl (100 mM), ATP (0.15 mM), DTT (1 mM), BSA (0.1 mg/ml), NADH (0.5 mM), PEP (1.5 mM), pyruvate kinase (4 U/ml), lactate dehydrogenase (8 U/ml), and antifoam (50 ppm) (concentrations expressed are final assay concentrations). The pH was adjusted to 6.80 at 22° C. by addition of potassium hydroxide. Lead optimization assays were performed with a more sensitive pyruvate kinase/horseradish peroxidase/pyruvate oxidase-coupled ATPase assay containing the following reagents: Potassium PIPES (12 mM), MgCl2 (2 mM), KCl (100 mM), ATP (0.15 mM), BSA (0.05 mg/ml), potassium phosphate (2 mM), amplex red (0.1 mM), PEP (0.1 mM), pyruvate kinase (4 U/ml), horseradish peroxidase (0.5 U/ml), pyruvate oxidase (0.5 U/ml), and antifoam (50 ppm) (concentrations expressed are final assay concentrations). The pH was adjusted to 7.00 at 22° C. by addition of potassium hydroxide.
The protein components specific to this assay are chicken gizzard smooth muscle myosin subfragment-1 that has been chemically crosslinked to either cardiac or skeletal actin using an excess of 1-Ethyl-3-[3-dimethylaminopropyl]carbodiimide hydrochloride and N-hydroxysuccinimide. The exact concentration of the crosslinked smooth muscle myosin in the assay is determined empirically, by titration to achieve a desired rate of ATP hydrolysis. The concentration varies between protein preparations due to variations in the fraction of active molecules in each preparation.
Compound dose response assays are performed by first preparing a dilution series of test compound, each with an assay mixture containing potassium PIPES, MgCl2, KCl, ATP, BSA, potassium phosphate, amplex red, PEP, crosslinked smooth muscle actomyosin (subfragment-1), antifoam, and water. The assay is started by adding an equal volume of solution containing potassium Pipes, MgCl2, KCl, BSA, potassium phosphate, pyruvate kinase, horseradish peroxidase, pyruvate oxidase, antifoam, and water. ATP hydrolysis is monitored by measuring the fluorescence of amplex red (excitation at 480 nm, emission at 615 nm). The resulting dose response curve is fit by the 4 parameter equation y=Bottom+((Top-Bottom)/(1+((IC50/X)^Hill))). The IC50 is defined as the concentration at which ATPase activity is midway between the top and bottom of the dose response curve.

SMILES	IC50 [nM]
CCc1ccc(NC(=O)OCC2(C(=O)NCc3ccccc3Cl)CCN(C(=O)C(N)CO)CC2)cc1 (centres unmarked) [(1-(2-amino-3-hydroxypropanoyl)-4-{[N-(4-ethylphenyl)carbamoyloxy]methyl}(4-piperidyl))-N-[(2-chlorophenyl)methyl]carboxamide]	143
CCc1ccc(NC(=O)OCC2(C(=O)NCc3ccccc3Cl)CCN(C(=O)C(N)C(C)C)CC2)cc1 (centres unmarked) [(1-(2-amino-3-methylbutanoyl)-4-{[N-(4-ethylphenyl)carbamoyloxy]methyl}(4-piperidyl))-N-[(2-chlorophenyl)methyl]carboxamide]	540
CCc1ccc(NC(=O)OCC2(C(=O)NCc3ccccc3Cl)CCCN(C(=O)CN)C2)cc1 (centres unmarked) [(1-(2-aminoacetyl)-3-{[N-(4-ethylphenyl)carbamoyloxy]methyl}(3-piperidyl))-N-[(2-chlorophenyl)methyl]carboxamide]	474
CCc1ccc(NC(=O)OCC2(C(=O)NCc3ccccc3Cl)CCN(C(=O)CN)C2)cc1 (centres unmarked) [(1-(2-aminoacetyl)-3-{[N-(4-ethylphenyl)carbamoyloxy]methyl}pyrrolidin-3-yl)-N-[(2-chlorophenyl)methyl]carboxamide]	526
CCc1ccc(NC(=O)OCCC2(C(=O)NCc3ccccc3Cl)CCN(C(=O)CN)CC2)cc1 [(1-(2-aminoacetyl)-4-{2-[N-(4-ethylphenyl)carbamoyloxy]ethyl}(4-piperidyl))-N-[(2-chlorophenyl)methyl]carboxamide]	2440
Cc1ccc(NC(=O)OCC2(C(=O)NCc3ccccc3Cl)CCN(C(=O)CN)CC2)c(Cl)c1 [(1-(2-aminoacetyl)-4-{[N-(2-chloro-4-methylphenyl)carbamoyloxy]methyl}(4-piperidyl))-N-[(2-chlorophenyl)methyl]carboxamide]	281
Cc1ccc(NC(=O)OCC2(C(=O)NCc3ccccc3Cl)CCN(C(=O)CN)CC2)cc1F [(1-(2-aminoacetyl)-4-{[N-(3-fluoro-4-methylphenyl)carbamoyloxy]methyl}(4-piperidyl))-N-[(2-chlorophenyl)methyl]carboxamide]	742
NCC(=O)N1CCC(COC(=O)Nc2ccc(Cl)cc2)(C(=O)NCc2ccccc2Cl)CC1 [(1-(2-aminoacetyl)-4-{[N-(4-chlorophenyl)carbamoyloxy]methyl}(4-piperidyl))-N-[(2-chlorophenyl)methyl]carboxamide]	569
N#Cc1ccc(NC(=O)OCC2(C(=O)NCc3ccccc3Cl)CCN(C(=O)CN)CC2)cc1 [(1-(2-aminoacetyl)-4-{[N-(4-cyanophenyl)carbamoyloxy]methyl}(4-piperidyl))-N-[(2-chlorophenyl)methyl]carboxamide]	7780
CCc1ccc(NC(=O)OCC2(C(=O)NCc3ccccc3Cl)CCN(C(=O)CN)CC2)cc1 [(1-(2-aminoacetyl)-4-{[N-(4-ethylphenyl)carbamoyloxy]methyl}(4-piperidyl))-N-[(2-chlorophenyl)methyl]carboxamide]	175
CCc1ccc(NC(=O)OCC2(C(=O)NCc3ccccc3C#N)CCN(C(=O)CN)CC2)cc1 [(1-(2-aminoacetyl)-4-{[N-(4-ethylphenyl)carbamoyloxy]methyl}(4-piperidyl))-N-[(2-cyanophenyl)methyl]carboxamide]	904
CCc1ccc(NC(=O)OCC2(C(=O)NCc3ccccc3F)CCN(C(=O)CN)CC2)cc1 [(1-(2-aminoacetyl)-4-{[N-(4-ethylphenyl)carbamoyloxy]methyl}(4-piperidyl))-N-[(2-fluorophenyl)methyl]carboxamide]	307
CCc1ccc(NC(=O)OCC2(C(=O)NCc3ccccc3OC)CCN(C(=O)CN)CC2)cc1 [(1-(2-aminoacetyl)-4-{[N-(4-ethylphenyl)carbamoyloxy]methyl}(4-piperidyl))-N-[(2-methoxyphenyl)methyl]carboxamide]	2160
CCc1ccc(NC(=O)OCC2(C(=O)NCc3ccccc3C)CCN(C(=O)CN)CC2)cc1 [(1-(2-aminoacetyl)-4-{[N-(4-ethylphenyl)carbamoyloxy]methyl}(4-piperidyl))-N-[(2-methylphenyl)methyl]carboxamide]	167
